According to paper PMC4042160, “In silico, in vitro and cellular analysis with a kinome-wide inhibitor panel correlates cellular LRRK2 dephosphorylation to inhibitor activity on LRRK2” (Frontiers in Molecular Neuroscience, 2014):
Read-outs that look alike come from different tables or passages of the source.

What was measured:
LRRK2 phospho-Ser935 = molecular target: T1, LRRK2 phospho-Ser935 (Homo sapiens, UniProt Q5S007); assay: Cellular LRRK2 phosphoserine 935 dephosphorylation spotblot assay in SH-SY5Y cells stably expressing 3xFlag-LRRK2; type: cell-based; settings: for Phosphorylation level relative to solvent (%) (cellular pS935 assay): @ 5 μM for 2 h, SH-SY5Y stably expressing LRRK2, pS935/total LRRK2; for Cellular pS935 (% @ 5 μM): pS935 level as % of control, 5 μM for 2 h
T1 construct: expressed in transfected cells

[1] = molecular target: T2, full length LRRK2 protein (Homo sapiens, UniProt Q5S007); assay: In vitro LRRKtide kinase assay with full length recombinant LRRK2, dose-response (IC50/pIC50); type: biochemical
T2 construct: compounds were tested in triplicate with full length LRRK2 protein; made in house

[2] = molecular target: T3, GST-tagged truncated LRRK2 containing residues 970 to 2527 (Homo sapiens, UniProt Q5S007); assay: In vitro LRRKtide peptide-substrate kinase assay, single dose testing (10 μM); type: biochemical; settings: LRRKtide assay @ 10 μM inhibitor; GST-LRRK2 970-2527; 10 μM ATP; mean, N = 3; solvent control = 100%
T3 construct: GST-tagged truncated LRRK2 containing residues 970 to 2527 (Life Technologies); purchased Life Technologies

LRRK2 pS935 [3] = test system: LRRK2 pS935; parameters: method as in Delbroek et al., 2013; settings: ref Delbroek et al., 2013; read-out: IC50 pS935 levels, ELISA; cited from earlier work
LRRK2 = settings: 2011, read-out: IC50 in vitro LRRK2, published, cited from earlier work
LRRK2 pS935 [4] = test system: LRRK2 pS935; parameters: method as in Hermanson et al., 2012; settings: ref Hermanson et al., 2012; read-out: IC50 pS935 levels, time-resolved FRET; cited from earlier work
LRRK2 pS935 [5] = test system: LRRK2 pS935; parameters: method as in Dzamko et al., 2010; Deng et al., 2011; settings: ref Dzamko et al., 2010; Deng et al., 2011; read-out: IC50 pS935 levels, western blot; cited from earlier work
[6] = SH-SY5Y cells with stable expression of LRRK2
[7] = LRRKtide phosphorylation, dose-response
[8] = LRRKtide phosphorylation, dose-response, read-out: IC50 in vitro (lrrktide)
[9] = pS935 dephosphorylation, SH-SY5Y cells with stable expression of LRRK2
[10] = pS935 dephosphorylation, SH-SY5Y cells with stable expression of LRRK2, read-out: IC50 cellular (pS935)

T3 sequence (Q5S007 970-2527): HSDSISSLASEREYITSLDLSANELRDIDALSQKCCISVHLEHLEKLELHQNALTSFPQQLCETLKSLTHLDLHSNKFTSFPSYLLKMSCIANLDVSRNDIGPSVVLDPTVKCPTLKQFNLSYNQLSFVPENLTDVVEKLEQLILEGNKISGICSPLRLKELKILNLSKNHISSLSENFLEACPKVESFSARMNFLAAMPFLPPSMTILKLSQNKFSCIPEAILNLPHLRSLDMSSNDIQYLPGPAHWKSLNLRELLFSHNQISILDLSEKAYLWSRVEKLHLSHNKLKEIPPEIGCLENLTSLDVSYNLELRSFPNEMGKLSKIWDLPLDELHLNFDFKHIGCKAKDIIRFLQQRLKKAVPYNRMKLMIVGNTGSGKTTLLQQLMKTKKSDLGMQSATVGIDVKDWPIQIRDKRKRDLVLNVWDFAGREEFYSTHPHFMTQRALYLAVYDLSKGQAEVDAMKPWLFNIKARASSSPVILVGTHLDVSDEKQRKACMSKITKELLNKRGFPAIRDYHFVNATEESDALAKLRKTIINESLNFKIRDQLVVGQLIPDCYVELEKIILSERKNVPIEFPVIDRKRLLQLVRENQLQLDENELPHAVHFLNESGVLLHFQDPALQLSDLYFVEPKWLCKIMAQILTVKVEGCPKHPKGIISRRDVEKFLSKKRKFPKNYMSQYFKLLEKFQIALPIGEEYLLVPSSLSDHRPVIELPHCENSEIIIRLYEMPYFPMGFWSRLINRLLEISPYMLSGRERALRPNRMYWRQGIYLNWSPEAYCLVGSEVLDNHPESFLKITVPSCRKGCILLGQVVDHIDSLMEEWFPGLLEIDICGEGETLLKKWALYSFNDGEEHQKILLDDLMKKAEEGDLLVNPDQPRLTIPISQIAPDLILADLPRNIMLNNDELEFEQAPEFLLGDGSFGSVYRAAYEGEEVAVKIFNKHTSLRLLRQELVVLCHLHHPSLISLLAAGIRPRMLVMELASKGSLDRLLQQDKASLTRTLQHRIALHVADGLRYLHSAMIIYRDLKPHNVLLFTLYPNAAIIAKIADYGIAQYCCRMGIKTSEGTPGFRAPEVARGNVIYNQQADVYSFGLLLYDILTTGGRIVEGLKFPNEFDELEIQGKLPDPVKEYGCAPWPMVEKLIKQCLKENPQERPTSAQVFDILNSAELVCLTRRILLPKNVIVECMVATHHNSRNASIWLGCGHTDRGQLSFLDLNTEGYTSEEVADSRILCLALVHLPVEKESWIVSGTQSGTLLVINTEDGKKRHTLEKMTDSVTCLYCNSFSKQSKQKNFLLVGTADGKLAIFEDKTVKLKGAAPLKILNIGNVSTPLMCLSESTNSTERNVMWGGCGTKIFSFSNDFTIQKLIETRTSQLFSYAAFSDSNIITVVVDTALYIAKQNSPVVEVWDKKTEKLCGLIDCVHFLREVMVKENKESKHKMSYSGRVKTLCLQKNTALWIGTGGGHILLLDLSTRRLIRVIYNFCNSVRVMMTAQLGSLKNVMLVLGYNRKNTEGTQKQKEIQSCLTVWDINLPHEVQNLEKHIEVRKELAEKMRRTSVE
T1 sequence (Q5S007 whole entry): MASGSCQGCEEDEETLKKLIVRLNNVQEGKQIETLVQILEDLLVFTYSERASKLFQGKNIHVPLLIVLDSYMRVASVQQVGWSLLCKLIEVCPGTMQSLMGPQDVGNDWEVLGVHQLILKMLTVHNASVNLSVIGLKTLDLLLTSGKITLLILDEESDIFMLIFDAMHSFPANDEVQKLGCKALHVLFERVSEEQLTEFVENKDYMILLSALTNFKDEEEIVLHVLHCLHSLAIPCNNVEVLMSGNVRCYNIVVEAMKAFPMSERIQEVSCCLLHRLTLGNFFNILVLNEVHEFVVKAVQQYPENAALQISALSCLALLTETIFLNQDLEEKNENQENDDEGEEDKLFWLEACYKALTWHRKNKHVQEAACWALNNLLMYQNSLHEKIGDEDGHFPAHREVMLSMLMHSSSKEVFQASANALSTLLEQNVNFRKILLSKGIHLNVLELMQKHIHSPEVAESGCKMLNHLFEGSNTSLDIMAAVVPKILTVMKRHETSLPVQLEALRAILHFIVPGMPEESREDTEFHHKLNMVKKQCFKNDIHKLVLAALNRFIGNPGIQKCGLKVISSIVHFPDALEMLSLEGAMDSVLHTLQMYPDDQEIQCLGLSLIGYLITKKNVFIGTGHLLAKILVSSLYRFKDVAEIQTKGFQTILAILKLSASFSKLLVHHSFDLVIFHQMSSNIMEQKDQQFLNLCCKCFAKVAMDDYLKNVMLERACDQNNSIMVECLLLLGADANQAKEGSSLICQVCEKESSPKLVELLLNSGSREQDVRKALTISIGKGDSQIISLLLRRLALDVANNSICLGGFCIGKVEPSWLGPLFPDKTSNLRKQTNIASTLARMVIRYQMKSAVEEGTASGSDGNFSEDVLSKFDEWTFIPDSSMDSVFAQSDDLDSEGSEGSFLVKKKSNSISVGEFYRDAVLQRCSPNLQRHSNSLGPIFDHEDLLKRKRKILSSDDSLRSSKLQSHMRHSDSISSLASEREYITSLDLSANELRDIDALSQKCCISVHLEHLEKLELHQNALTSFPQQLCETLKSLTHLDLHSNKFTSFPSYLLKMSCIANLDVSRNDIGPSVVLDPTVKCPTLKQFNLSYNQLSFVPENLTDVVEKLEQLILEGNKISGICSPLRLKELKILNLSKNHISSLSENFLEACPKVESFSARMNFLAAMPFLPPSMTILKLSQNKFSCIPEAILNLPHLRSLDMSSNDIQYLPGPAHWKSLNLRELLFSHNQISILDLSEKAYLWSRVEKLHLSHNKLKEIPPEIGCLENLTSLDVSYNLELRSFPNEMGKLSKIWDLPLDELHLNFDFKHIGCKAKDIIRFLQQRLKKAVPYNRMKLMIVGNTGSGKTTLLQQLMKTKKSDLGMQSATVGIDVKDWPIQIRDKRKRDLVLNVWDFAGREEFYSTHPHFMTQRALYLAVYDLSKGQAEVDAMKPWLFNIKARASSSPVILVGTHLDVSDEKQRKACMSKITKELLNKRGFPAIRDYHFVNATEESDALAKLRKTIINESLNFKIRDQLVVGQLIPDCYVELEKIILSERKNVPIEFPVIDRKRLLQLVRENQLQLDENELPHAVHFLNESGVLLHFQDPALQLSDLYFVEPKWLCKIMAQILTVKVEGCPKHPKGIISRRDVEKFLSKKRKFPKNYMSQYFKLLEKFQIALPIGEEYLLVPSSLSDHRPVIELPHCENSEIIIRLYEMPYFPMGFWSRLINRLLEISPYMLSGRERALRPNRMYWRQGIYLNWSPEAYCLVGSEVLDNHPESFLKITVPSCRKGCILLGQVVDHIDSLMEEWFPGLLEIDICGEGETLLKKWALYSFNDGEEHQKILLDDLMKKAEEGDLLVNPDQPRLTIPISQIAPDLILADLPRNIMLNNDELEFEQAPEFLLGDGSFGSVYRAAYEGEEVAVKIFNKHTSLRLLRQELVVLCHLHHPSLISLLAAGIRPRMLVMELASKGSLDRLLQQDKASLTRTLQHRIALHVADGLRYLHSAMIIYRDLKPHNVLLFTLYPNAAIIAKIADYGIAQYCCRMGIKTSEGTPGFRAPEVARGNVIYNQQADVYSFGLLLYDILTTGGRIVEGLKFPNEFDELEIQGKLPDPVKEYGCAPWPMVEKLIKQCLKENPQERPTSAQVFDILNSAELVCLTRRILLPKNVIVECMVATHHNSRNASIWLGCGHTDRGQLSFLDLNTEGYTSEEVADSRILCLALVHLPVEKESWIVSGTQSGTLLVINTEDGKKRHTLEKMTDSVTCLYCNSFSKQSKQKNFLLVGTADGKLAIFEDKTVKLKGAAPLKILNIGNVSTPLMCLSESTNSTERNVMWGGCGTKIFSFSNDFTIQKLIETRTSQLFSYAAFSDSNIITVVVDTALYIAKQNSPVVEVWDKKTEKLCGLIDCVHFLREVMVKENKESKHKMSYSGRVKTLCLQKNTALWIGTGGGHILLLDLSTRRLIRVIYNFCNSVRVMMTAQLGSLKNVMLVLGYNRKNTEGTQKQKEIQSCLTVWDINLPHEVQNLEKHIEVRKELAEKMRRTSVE
T2 sequence (Q5S007 whole entry): as above

Row | Molecule | Phosphorylation level relative to solvent (%) (cellular pS935 assay) (LRRK2 phospho-Ser935) | Cellular pS935 (% @ 5 μM) (LRRK2 phospho-Ser935; [6]) | pIC50 in vitro (lrrktide) [1, 7] | IC50 [1, 8] | % LRRKtide phosphorylation relative to solvent [2] | further results
1 | COc1cc2ncnc(N3CCN(C(=O)Nc4ccc(Oc5ccccc5)cc4)CC3)c2cc1OC [PDGF receptor tyrosine kinase inhibitor III] | 72.83% | 72.83% | <5 | > 10000 nM | 55.86% | 
2 | COc1cc(OC)c(C=C2C(O)=Nc3ccccc32)c(OC)c1 [IC261] | 78.81% | 78.81% |  | > 10000 nM | 89.62% | 
3 | O=C1Nc2ccc(Br)cc2/C1=C/c1cc2c([nH]1)CCCC2 [VEGF receptor 2 kinase inhibitor II] | 37.26% | 37.26% | 7.44 | 36.3 nM | 4.13% | pIC50 cellular (pS935) (LRRK2 phospho-Ser935; [9]): <5.7; IC50 (LRRK2 phospho-Ser935; [10]): > 2000 nM
4 | COc1cc2ncnc(Nc3ccc(O)c(Br)c3)c2cc1OC [JAK3 inhibitor II] | 63.02% | 63.02% |  | 1200 nM | 1.86% | 
5 | Nc1nc(Nc2ccc(S(N)(=O)=O)cc2)nn1C(=S)Nc1c(F)cccc1F [Cdk1/2 inhibitor III] | 13.15% | 13.15% | 9.04 | 0.91 nM | 0.73% | pIC50 cellular (pS935) (LRRK2 phospho-Ser935; [9]): 8.93; IC50 (LRRK2 phospho-Ser935; [10]): 1.18 nM
6 | COc1cc(C(=O)N2CCC(N3CCN(C)CC3)CC2)ccc1Nc1ncc2c(n1)N(C)c1ccccc1C(=O)N2C [LRRK2-IN1] |  |  |  |  |  | IC50 (LRRK2 phospho-Ser935; SH-SY5Y stably overexpressing 3flag-LRRK2 WT, N ≥ 5, read-out: IC50 of phosphorylation at LRRK2 Ser935 (cellular spotblot)): 239 nM; IC50 ([1]; full length LRRK2, 10 μM ATP, read-out: IC50 (LRRKtide phosphorylation assay)): 3.54 nM; IC50 (LRRK2 pS935 [3]): 50 to 100 nM; IC50 (LRRK2; 100 μM ATP in original study, ref Deng et al.): 13 nM; IC50 (LRRK2 pS935 [4]): 90 to 200 nM; IC50 (LRRK2 pS935 [5]): ~100 nM
7 | BPIQ-I | 88.55% | 88.55% | 5.12 | 7650 nM | 17.30% | 
8 | CC(C)[C@H](CO)Nc1nc(Nc2cccc(Cl)c2)c2ncn(C(C)C)c2n1 [Purvalanol A] | 121.26% | 121.26% |  | 4570 nM | 15.64% | 
9 | Cc1cc(C)c(/C=C2\C(=O)Nc3ccccc32)[nH]1 [VEGF receptor 2 kinase inhibitor III] | 45.08% | 45.08% | 6.56 | 273 nM | 2.19% | pIC50 cellular (pS935) (LRRK2 phospho-Ser935; [9]): <5.7; IC50 (LRRK2 phospho-Ser935; [10]): > 2000 nM
10 | Cc1[nH]c(/C=C2\C(=O)Nc3ccc(S(=O)(=O)N(C)c4cccc(Cl)c4)cc32)c(C)c1C(=O)N1CCN(C)CC1 [Met kinase inhibitor] | 52.43% | 52.43% | 7.37 | 43 nM | 2.05% | 
11 | COc1cc2ncnc(Nc3ccc(OCc4ccccc4)cc3)c2cc1OC [EGFR/ErbB-2 inhibitor] | 67.43% | 67.43% | <5 | > 10000 nM | 68.24% | 
12 | Nc1ccc2ncnc(NCCc3ccc(Oc4ccccc4)cc3)c2c1 [NF-KB activation inhibitor] | 65.67% | 65.67% | <5 | > 10000 nM | 57.28% | 
13 | O=C1Nc2ccc3ncsc3c2/C1=C/c1cnc[nH]1 [PKR inhibitor] | 29.00% | 29% | 6.44 | 363 nM | 1.18% | pIC50 cellular (pS935) (LRRK2 phospho-Ser935; [9]): 5.88; IC50 (LRRK2 phospho-Ser935; [10]): 1310 nM
14 | COc1cc2ncnc(Nc3ccc(NC(=O)c4ccccc4)cc3)c2cc1OC [Aurora kinase inhibitor II] | 69.85% | 69.85% | <5 | > 10000 nM | 22.60% | 
15 | CC(=O)O/N=C1/C(=C2/C(=O)Nc3cc(Br)ccc32)Nc2ccccc21 [GSK-3 inhibitor X] | 106.06% | 106.06% | <5 | > 10000 nM | 38.94% | 
16 | COc1cc(N2CCOCC2)ccc1Nc1ncc(F)c(Nc2ccccc2NS(C)(=O)=O)n1 [CZC-25146] |  |  |  |  |  | IC50 (LRRK2 phospho-Ser935; read-out: IC50 of phosphorylation at LRRK2 Ser935 (cellular spotblot)): 61 nM; IC50 ([1]; read-out: IC50 (LRRKtide phosphorylation assay)): 1.78 nM; IC50 (LRRK2; ref Ramsden et al.): 4.76 nM
